Where a name gives a salt, the structure may show the parent alone. Read-outs that look alike come from different tables or passages of the source.
Legend:
Type in all cases: cell-based
Aspergillus fumigatus = test: Minimum inhibitory concentration (MIC100), CLSI M38-A2 broth dilution
Procedure: (§1) Antifungal activity of the antifungal formulations of the invention against dermatophytes, as compared to terbinafine hydrochloride alone, is determined in various dermatophytes known to cause onychomycosis, including Trichophyton rubrum, T. mentagrophytes, and Epidermophyton floccosum. Antifungal activity of the antifungal formulations of the invention as compared to terbinafine hydrochloride alone, was determined in various pathogenic fungi, including Aspergillus flavus and Aspergillus fumigatus. Antifungal activity of the antifungal formulations of the invention was measured by the minimum inhibitory concentration (MIC). Antifungal activity can also be measured by minimum fungicidal concentration (MFC).
(§2) Several strains of Aspergillus flavus, Aspergillus fumigatus, and Candida albicans were tested. Trichophyton rubrum MYA4498 and T. mentagrophytes MYA4439, the QC isolates approved by the Clinical and Laboratory Standards Institute (CLSI) for dermatophyte susceptibility testing, can also be tested.
(§3) MIC testing was performed according to the CLSI M38A2 standard for the susceptibility testing of dermatophytes developed at the Center for Medical Mycology (See, Ghannoum et al., 2004, J Clin Microbial. 42(7): 2977-2979 CLSI, Reference Method for Broth Dilution Antifungal Susceptibility Testing of Filamentous Fungi: Approved Standard-Second Edition. CLSI document M38-A2 [ISBN 1-56238-668-9]. CLSI, 940 West Valley Road, Suite 1400, Wayne, Pa. 19087-1898 USA, 2008). Briefly, RPMI was the test medium, incubation temperature and time was 35° C. and 24 hours or 48 hours, respectively, and the inoculum size was 1-3×10^3 conidia/ml. The MIC endpoint was 100% inhibition as compared to the growth control.
(§4) The MIC range, MIC100 (defined as the minimum concentration required to inhibit 100% of the isolates tested), for the antifungal preparations of the invention and comparators was computed. The MFC range, MFC50, MFC90, and MFC100 for the antifungal preparations of the invention and comparators can also be computed.
(§5) In this example, the terbinafine formulation of the invention comprises terbinafine formulated with a phospholipid and a surfactant.

Aspergillus flavus = test: as above
Procedure: as §1, §2, §3, §4, §5

[1] = tested on: Trichophyton rubrum MYA4498; test: Morphological effects of antifungal preparations on dermatophyte hyphae in vitro (calcofluor white microscopy); settings: T. rubrum hyphae; for Week 1 Change in morphology If yes, description of change: hydrochloride
[2] = tested on: Trichophyton rubrum MYA4498; test: as above; settings: T. rubrum hyphae; for Week 1 Change in morphology If yes, description of change: hydrochloride; remark: listed apart in the source
Procedure: The morphological changes to dermatophyte hyphae following exposure to an antifungal formulation of the invention, specifically a terbinafine formulation, compared to terbinafine hydrochloride solution in vitro were evaluated.
Trichophyton rubrum MYA4498, one of the quality control isolates approved by the Clinical and Laboratory Standards Institute (CLSI) for dermatophyte susceptibility testing, was used as a test isolate throughout testing, (See, Ghannoum et al., 2004, J Clin Microbiol. 42(7): 2977-2979; Ghannoum et al., J Clin Microbiol. 44: 353-4350. Inoculum containing 3×10^3 conidia/ml of T. rubrum was prepared in RPMI-1640 buffered with MOPS (Hardy Diagnostics, Santa Maria. CA), added to the wells of microtiter plates (100 ul aliquots) and incubated at 35° C. for 2-3 days until good hyphal growth was achieved. Specific concentrations of 1 mg/ml, 3 mg/ml, and 15 mg/ml of terbinafine alone were prepared in RPMI-1640. The terbinafine hydrochloride (1 mg/ml. 3 mg/ml, and 15 mg/ml) and 15 mg/ml of a terbinafine formulation of the invention was added to the wells of the microtiter plates (100 ul aliquots) and re-incubated. Twenty plates for each drug were set up to ensure adequate sample for examination over several weeks; RPMI was added as needed to maintain the volume of each well at 200 ul.
At pre-determined intervals (24, 48, 72, and 96 hours and once weekly thereafter for a total of 12 weeks), a loopful of hyphal growth from the bottom of each well was removed to a glass microscope slide containing a drop of calcofluor white stain (fluorescent KOH) and covered with a cover slip. Slides were examined microscopically under both white light and UV light. Images from a representative field visualized under each light source were be recorded.
Samples showing significant differences in morphology between exposure of a terbinafine formulation vs. terbinafine alone were further examined under Scanning Electron Microscopy (SEM). Preparation of samples for SEM were performed following previously established methodology (see. Chandra et al., 2001. J. Dent. Res. 80:903-908).

MIC (Aspergillus fumigatus; 24 h, A. fumigatus strain MRL No. 2456, 24 hours, read-out: MIC100 (μg/mL) in 24 hours): 0.25 µg/mL
MIC (Aspergillus fumigatus; 24 h, A. fumigatus strain MRL No. 2471, 24 hours, read-out: MIC100 (μg/mL) in 24 hours): 0.25 µg/mL
MIC (Aspergillus fumigatus; 24 h, A. fumigatus strain MRL No. 2574, 24 hours, read-out: MIC100 (μg/mL) in 24 hours): 0.5 µg/mL
MIC (Aspergillus fumigatus; 24 h, A. fumigatus strain MRL No. 16621, 24 hours, read-out: MIC100 (μg/mL) in 24 hours): 0.5 µg/mL
MIC (Aspergillus fumigatus; 24 h, A. fumigatus strain MRL No. 16629, 24 hours, read-out: MIC100 (μg/mL) in 24 hours): 0.5 µg/mL
MIC (Aspergillus fumigatus; 48 h, A. fumigatus strain MRL No. 2456, 48 hours, read-out: MIC100 (μg/mL) in 48 hours): 234 µg/mL
MIC (Aspergillus fumigatus; 48 h, A. fumigatus strain MRL No. 2471, 48 hours, read-out: MIC100 (μg/mL) in 48 hours): 234 µg/mL
MIC (Aspergillus fumigatus; 48 h, A. fumigatus strain MRL No. 2574, 48 hours, read-out: MIC100 (μg/mL) in 48 hours): 234 µg/mL
MIC (Aspergillus fumigatus; 48 h, A. fumigatus strain MRL No. 16627, 48 hours, read-out: MIC100 (μg/mL) in 48 hours): 234 µg/mL
MIC (Aspergillus fumigatus; 48 h, A. fumigatus strain MRL No. 16629, 48 hours, read-out: MIC100 (μg/mL) in 48 hours): 234 µg/mL
MIC (Aspergillus flavus; 24 h, A. flavus strain MRL No. 17840, 24 hours, read-out: MIC100 (μg/mL) in 24 hours): 0.002 µg/mL
MIC (Aspergillus flavus; 24 h, A. flavus strain MRL No. 17842, 24 hours, read-out: MIC100 (μg/mL) in 24 hours): 0.002 µg/mL
MIC (Aspergillus flavus; 24 h, A. flavus strain MRL No. 18736, 24 hours, read-out: MIC100 (μg/mL) in 24 hours): 6e-05 µg/mL
MIC (Aspergillus flavus; 24 h, A. flavus strain MRL No. 18743, 24 hours, read-out: MIC100 (μg/mL) in 24 hours): 0.008 µg/mL
MIC (Aspergillus flavus; 24 h, A. flavus strain MRL No. 18744, 24 hours, read-out: MIC100 (μg/mL) in 24 hours): 0.008 µg/mL
MIC (Aspergillus flavus; 48 h, A. flavus strain MRL No. 17840, 48 hours, read-out: MIC100 (μg/mL) in 48 hours): 0.004 µg/mL
MIC (Aspergillus flavus; 48 h, A. flavus strain MRL No. 17842, 48 hours, read-out: MIC100 (μg/mL) in 48 hours): 0.002 µg/mL
MIC (Aspergillus flavus; 48 h, A. flavus strain MRL No. 18736, 48 hours, read-out: MIC100 (μg/mL) in 48 hours): 0.002 µg/mL
MIC (Aspergillus flavus; 48 h, A. flavus strain MRL No. 18743, 48 hours, read-out: MIC100 (μg/mL) in 48 hours): 0.015 µg/mL
MIC (Aspergillus flavus; 48 h, A. flavus strain MRL No. 18744, 48 hours, read-out: MIC100 (μg/mL) in 48 hours): 0.002 µg/mL
SMILES: CN(C/C=C/C#CC(C)(C)C)Cc1cccc2ccccc12 [Terbinafine hydrochloride, terbinafine hydrochloride]
morphological changes observed ([1]; 1 μg/mL, 24, 48, 72 and 96 hours): no morphological changes
24 hour Change in morphology If yes, description of change ([1]; 1 μg/mL): no
48 hour Change in morphology If yes, description of change ([1]; 1 μg/mL): no
72 hour Change in morphology If yes, description of change ([1]; 1 μg/mL): no
96 hour Change in morphology If yes, description of change ([1]; 1 μg/mL): no
Week 1 Change in morphology If yes, description of change ([1]; 1 μg/mL, listed as Terbinafine): Yes: hyphae under
Week 1 Change in morphology If yes, description of change ([1]; 1 μg/mL, listed as terbinafine): had vacuoles within the hyphae
Week 2 Change in morphology If yes, description of change ([1]; 1 μg/mL, Week 2): Yes: hyphae under
24 hour Change in morphology If yes, description of change ([1]; 3 mg/mL): no
48 hour Change in morphology If yes, description of change ([1]; 3 mg/mL): no
72 hour Change in morphology If yes, description of change ([1]; 3 mg/mL): no
96 hour Change in morphology If yes, description of change ([1]; 3 mg/mL): no
morphological changes observed ([2]; 3 mg/mL, 24, 48, 72 and 96 hours): no morphological changes
Week 1 Change in morphology If yes, description of change ([2]; 3 mg/mL): no presence of vacuoles within the hyphae
Week 1 Change in morphology If yes, description of change ([2]; 3 mg/mL, listed as Tcrbinafine): no
Week 2 Change in morphology If yes, description of change ([2]; 3 mg/mL): Yes: hyphae under
24 hour Change in morphology If yes, description of change ([2]; 15 mg/mL, 24 hour): no
48 hour Change in morphology If yes, description of change ([2]; 15 mg/mL, 48 hour): no
72 hour Change in morphology If yes, description of change ([2]; 15 mg/mL, 72 hour): no
96 hour Change in morphology If yes, description of change ([2]; 15 mg/mL, 96 hour): no
Week 1 Change in morphology If yes, description of change ([2]; 15 mg/mL, listed as Terbinafine): no
Week 1 Change in morphology If yes, description of change ([2]; 15 mg/mL, listed as terbinafine): no presence of vacuoles within the hyphae
Week 2 Change in morphology If yes, description of change ([2]; 15 mg/mL): no
